Source: patent publication US10509041B2, “Glucose derivative, and cell imaging method and imaging agent using said derivative” (HIROSAKI UNIVERSITY, priority 2014, dated 2019)
Values joined by “and” are separate entries in the source; they are usually repeats but may differ in a detail not shown here. Equal entries are not always repeated.

Tested on: mouse insulinoma cells (MIN6)
Assay: Increase in fluorescence intensity (uptake) after administration of fluorescent glucose derivative to MIN6 cells, influence of cytochalasin B (CB) or phloretin (PHT), fluorescence microplate reader
Format: cell-based
Details: CDG 100 μM, 37° C. 5 minutes; CB 10 μM; MIN6 culture day 13; average, two independent experiments
Protocol: Increase in fluorescence intensity caused by the administration of CDG, and the influence of a glucose transporter (GLUT) inhibitor CB thereon were confirmed by targeting MIN6 cells.
A 96-well clear-bottom plate having wells of 8 rows (A to H) and 12 columns (1 to 12) (μClear-PLATE, Greiner Bio-One, BLACK) was used in measurement. A culture solution containing MIN6 cells suspended at a density of 60×10^4 cells/mL was added dropwise at 10 μL/well to the central portion of the well, and then, the plate was left standing for 40 minutes in an incubator for fixation. The cells were cultured by the addition of a culture solution at 200 μL/well (6000 cells/well). For layout, the cells were seeded to wells B to H on the third column and wells A to G on the fifth column. Medium replacement was performed by replacing half the amount with a fresh one once every two days at 0 to 4 DIV (days in vitro) and every day at 5 DIV or later. […]
CDG and 2-NBDG were each independently administered to the wells on the third and fifth columns using an 8-channel pipette such that these derivatives were alternately placed on the same plate. Before the administration, the autofluorescence of each well was measured in advance using a fluorescence microplate reader (Flex Station, Molecular Devices, LLC). […] The measurement was conducted at Bottom Read, Averaging 3, and Photomultiplier sensitivity high. […]

Structure (SMILES): O=c1ccc2ccc(NC3C(O)OC(CO)[C@@H](O)[C@@H]3O)cc2o1 (stereo partly drawn) [CDG, 2-deoxy-2-(2-oxo-2H-chromen-7-yl)amino-D-glucose]
- fluorescence intensity in the presence of CB relative to the absence of CB: 47.3% and 42.9%
